According to publication PMC6609541, “Enterohepatic circulation of glucuronide metabolites of drugs in dog” (Pharmacology Research & Perspectives, 2019):
Like-named read-outs stand apart in the source and are kept apart here.

Tests used:
[1] = human, cited from earlier work; for EHC: enterohepatic circulation ref 11
[2] = tested on: human intestinal microsomes; design: method as in PMID 27862160; conditions: human intestinal microsomes ref 6; cited from earlier work
[3] = tested on: human intestinal microsomes; assay: Intestinal glucuronidation in human intestinal microsomes; format: in vitro ADME; conditions: data not shown

| SMILES | EHC [1] | EHC ([1]; listed as canagliflozin) | Urinary excretion % of glucuronide ([1]; From human 14C study ref 5) | intestinal glucuronidation [2] | intestinal glucuronidation [3] |
| --- | --- | --- | --- | --- | --- |
| Cc1ccc([C@@H]2O[C@H](CO)[C@@H](O)[C@H](O)[C@H]2O)cc1Cc1ccc(-c2ccc(F)cc2)s1 [Canagliflozin] | No | negligible | Moderate ^d (moderate 30%‐70%) | negligible | – |
| C[C@H]1c2cccc(CC(C)(C)O)c2C[C@H](CO)N1C(=O)Cc1c(Cl)cccc1Cl [DPTQ, 2‐(2,6‐dichlorophenyl)‐1‐((1S,3R)‐5‐(2‐hydroxy‐2‐methylpropyl)‐3‐(hydroxymethyl)‐1‐methyl‐3,4‐dihydroisoquinolin‐2(1H)‐yl)ethan‐1‐one] | – | – | – | – | negligible |
